Legend:
[1] = system: non-obstipative IBS patients; test: 12-week placebo-controlled clinical double-blind study, adequate alleviation of IBS symptoms; assay type: in vivo, human; details: for Final success rate: all patients (471; both sexes); for Success rate (responder rate, adequate alleviation of IBS symptoms): provisional result (454 patients)
Source text: The effect of cilansetron on non-obstipative IBS patients of both sexes was investigated in a 12-week placebo-controlled clinical double-blind study with randomized selection and parallel test groups. […] Likewise, those patients were included in the study who responded “No” to the question about pain/feeling of unwellness in the lower abdomen only in ≦50% of the cases or who judged their pain/feeling of unwellness in the lower abdomen as “restrictive” for <2 times over a two-week observation period. Cilansetron was used in doses of 1, 2, 8 and 16 mg. The patients were checked weekly for “adequate alleviation” (=primary effectiveness parameter) of their IBS symptoms (stomach pains such as pains in the abdomen, abnormal bowel activity). Stomach pains such as pains in the abdomen, nature of the stools and stool frequency were rated daily by the patients (=secondary effectiveness parameter). In a provisional result of the double-blind study, the data of a total of 454 patients (297 female patients and 157 male patients) were evaluated and plotted in the table below. Corresponding to the criteria on which the clinical double-blind study was based, in both patient subgroups of male IBS patients and female IBS patients the success rates relating to the “adequate alleviation” of the IBS symptoms as set forth in the table below were noted: The “primary effectiveness parameter” corresponds to the success rate (=“responder rate”) to the question, which was put weekly to the patients, as to whether they had experienced “adequate alleviation” of their IBS symptoms (pain/feeling of unwellness in the lower abdomen, abnormal bowel activity) during the course of the previous week. A “responder” is regarded as a patient who was treated for at least four weeks and who responded “Yes” to the question posed of whether “adequate alleviation” of his/her IBS symptoms had occurred for at least half of his/her treatment period. At the end of the double-blind study, the data of a total of 471 patients (308 female patients and 163 male patients) were evaluated. The final success rates were 40% for the placebo group, 62% for the dose 1 mg cilansetron (TID), 53% for the dose 2 mg cilansetron (TID), 55% for the dose 8 mg cilansetron (TID) and 63% for the dose 16 mg cilansetron (TID).

[2] = system: non-obstipative IBS patients; details: clinical tests, WO 99/17755, cited from earlier work

In the case of Cc1nccn1C[C@H]1CCc2c(c3cccc4c3n2CCC4)C1=O [Cilansetron, (R)-(−)-4,5,6,8,9,10-hexahydro-10-[(2-methyl-1H-imidazol-1-yl)methyl]-11H-pyrido-[3,2,1-jk]-carbazol-11-one], the Final success rate ([1]; 1 mg TID, end of study) is reported as 62%, the Final success rate ([1]; 2 mg TID, end of study) is reported as 53% and the Final success rate ([1]; 8 mg TID, end of study) is reported as 55%. For the same compound, the Final success rate ([1]; 16 mg TID, end of study) was 63%, the “Response to treatment of non-obstipative IBS patients of both sexes” value ([1]; doses 1, 2, 8 and 16 mg) was “respond to the treatment with cilansetron in all the dosages investigated” and the “Final success rates, male compared with female patient groups” value ([1]; end of study, greatest differences at 1 mg TID) was “very similar for the male and female patient groups”. For the same compound, the “Success rate (responder rate, adequate alleviation of IBS symptoms)” value ([1]; female patients, 1 mg TID) was 69.6%, the “Success rate (responder rate, adequate alleviation of IBS symptoms)” value ([1]; female patients, 2 mg TID) was 60.3% and the “Success rate (responder rate, adequate alleviation of IBS symptoms)” value ([1]; female patients, 8 mg TID) was 56.9%. The “Success rate (responder rate, adequate alleviation of IBS symptoms)” value ([1]; female patients, 16 mg TID) was 61.4%, the “Success rate (responder rate, adequate alleviation of IBS symptoms)” value ([1]; male patients, 1 mg TID) was 51.3% and the “Success rate (responder rate, adequate alleviation of IBS symptoms)” value ([1]; male patients, 2 mg TID) was 63.0%. The “Success rate (responder rate, adequate alleviation of IBS symptoms)” value ([1]; male patients, 8 mg TID) was 56.3% and the “Success rate (responder rate, adequate alleviation of IBS symptoms)” value ([1]; male patients, 16 mg TID) was 58.6%.
For Cc1[nH]cnc1CN1CCc2c(c3ccccc3n2C)C1=O [alosetron], the “Effectiveness on female IBS patients compared with male IBS patients” value [2] is given as “significantly better effectiveness on female IBS patients” and the “Improvement in condition compared with the placebo group” value ([2]; male test subjects) is given as “no significant improvement in condition compared with the placebo group”.

Reference: patent US20030125349A1, “Medicament containing cilansetron for the treatment of non-obstipative male irritable bowel syndrome patients” (Solvay Pharmaceuticals GmbH, priority 2000, published 2003)
